Data taken from publication PMC8434491, “Targeting the Integrated Stress Response Kinase GCN2 to Modulate Retroviral Integration” (Molecules, 2021).
Structures can show the parent of a compound that is named as a salt. Where two headings read alike, the source gives them in different places.

Tests used:
IN–GCN2 interaction = molecular target: T1, IN–GCN2 interaction (UniProt P04585+Q9P2K8); test: IN–GCN2 interaction assay (AlphaLISA); assay type: binding, HIV-1 IN / human GCN2; details: for effect on the IN–GCN2 interaction: A-92: over a wide concentration range, MK-2048: nanomolar or low micromolar ranges
T1 construct: expressed as a truncated version (192-1024) in fusion after a glutathione S-transferase tag; Recombinant full-length IN was expressed in E. coli BL21 pLys; purchased SignalChem (GCN2); IN made in house in E. coli BL21 pLys E12-11G; host or cells: E. coli BL21 pLys (IN)
Source text: We developed an in vitro plate-based assay to monitor the interaction between GCN2 and IN using the AlphaLISA technology (Figure 1). Taking advantage of the tags present on each recombinant protein (6xHis for IN prepared “in-house”, and GST for GCN2 commercially available), we used specific beads that fluoresce only when they are in close proximity (<200 nm). The signal obtained (light count) is directly proportional to the binding of IN to GCN2 (homogenous solution assay at steady state).
IN–GCN2 interaction assay. Protein–protein interactions were monitored using the AlphaLISA technology (Perkin Elmer) taking advantage of the GST and 6xHis tags of GCN2 and IN, respectively. Accordingly, AlphaScreen GSH Donor beads and AlphaLISA Nickel Acceptor beads were used (Perkin Elmer). Reactions were carried out at room temperature by incubating GCN2 with drugs or DMSO for 5 min before addition of AlphaLISA Nickel Acceptor beads. After 5 min, IN was added to the reaction mixture and incubated for 20 min before adding the AlphaScreen GSH Donor beads. This interaction assay was performed in conditions similar to the in vitro phosphorylation assay, already described, using 25 nM GCN2 and 700 nM (except indicated otherwise) in a reaction buffer containing 50 mM Tris-HCl pH 7.5, 40 mM NaCl, 1 mM dithiothreitol (DTT), 0.05% Tween 20, 0.1% bovine serum albumin (BSA), 10 µg/mL of each donor and acceptor beads. Alpha signal was measured using an EnSight plate reader (Perkin Elmer) 120 min after the addition of the latest component of the reaction (unless indicated otherwise).

GCN2 = molecular target: T2, GCN2 (Homo sapiens, UniProt Q9P2K8); test: In vitro phosphorylation assay: GCN2 activation (auto-phosphorylation); assay type: biochemical; details: for decrease in GCN2 auto-phosphorylation: single dose of 100 µM, compared to DMSO
T2 construct: expressed as a truncated version (192-1024) in fusion after a glutathione S-transferase tag; purchased SignalChem E12-11G
T2 sequence (Q9P2K8 192-1024): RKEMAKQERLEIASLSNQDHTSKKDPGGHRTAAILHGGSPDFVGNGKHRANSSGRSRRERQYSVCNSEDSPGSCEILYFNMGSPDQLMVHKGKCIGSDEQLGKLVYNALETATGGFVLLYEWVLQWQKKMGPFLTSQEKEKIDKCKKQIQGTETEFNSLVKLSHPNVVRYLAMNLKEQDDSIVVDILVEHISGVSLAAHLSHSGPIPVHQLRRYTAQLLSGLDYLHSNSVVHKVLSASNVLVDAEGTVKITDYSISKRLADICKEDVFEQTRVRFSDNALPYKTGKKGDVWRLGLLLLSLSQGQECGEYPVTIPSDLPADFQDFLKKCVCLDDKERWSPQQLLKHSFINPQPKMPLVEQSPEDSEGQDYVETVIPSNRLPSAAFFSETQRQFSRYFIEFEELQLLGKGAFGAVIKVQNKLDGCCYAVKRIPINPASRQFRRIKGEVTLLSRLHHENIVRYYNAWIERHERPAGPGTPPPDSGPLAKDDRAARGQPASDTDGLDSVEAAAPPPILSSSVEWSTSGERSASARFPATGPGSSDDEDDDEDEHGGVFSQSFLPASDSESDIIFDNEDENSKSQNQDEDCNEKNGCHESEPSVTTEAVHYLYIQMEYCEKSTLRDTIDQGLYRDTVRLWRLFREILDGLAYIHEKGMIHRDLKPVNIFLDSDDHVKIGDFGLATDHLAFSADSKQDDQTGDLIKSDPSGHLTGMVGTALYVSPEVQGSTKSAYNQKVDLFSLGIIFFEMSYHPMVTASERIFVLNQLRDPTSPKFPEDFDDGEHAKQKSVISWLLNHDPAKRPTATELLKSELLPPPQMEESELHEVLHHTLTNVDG
Source text: Enzymes. GCN2 was purchased from SignalChem (EIF2AK4, cat. #E12-11G). This human recombinant protein was expressed as a truncated version (192-1024) in fusion after a glutathione S-transferase tag (approximate molecular weight of 132 kDa). Recombinant full-length IN was expressed in E. coli BL21 pLys (IPTG induction) and purified on a nickel chelating column, as described. Integrity and purity were checked by direct Coomassie coloration of elution fractions on SDS-PAGE before dialysis to remove imidazole. Protein concentration was determined using a NanoDrop 2000 with the following parameters: molecular weight: 34 kDa, extinction coefficient ϵ = 50,460 mol^−1cm^−1L.
(§1) In vitro phosphorylation assay. Phosphorylation of IN (700 nM) was carried out using 25 nM of GCN2 in a reaction buffer containing 10 mM Tris-HCl pH 7.5, 50 mM NaCl, 15 mM MgCl2, 7.5 mM MnCl2, 10 mM DTT, 0.005% Nonidet P-40, 100 µM ATP, 50 µCi/µL of [γ-^32P]-ATP (3000 Ci/mmole, Perkin Elmer). Reactions (20 µL) were stopped after a 60 min incubation at 30 °C by adding 10 µL of loading buffer [80 mM Tris-HCl pH 6.8, 100 mM DTT, 10% glycerol, 1% sodium dodecyl sulfate (SDS) and 0.05% bromophenol blue]. Samples were then loaded onto a 10% denaturating SDS-PAGE. After protein separation (120 V for 120 min) the gel was stained using Coomassie Brilliant Blue R-250. Autoradiography was performed using an imaging plate (Fujifilm, Tokyo, Japan) and images were obtained with a FLA-5000 Imaging System (Fujifilm).

HIV-1 IN [1] = molecular target: T3, HIV-1 IN (Human immunodeficiency virus type 1 group M subtype B, UniProt P04585); test: Integrase reaction, 3'-processing (3'-P), gel-based; assay type: biochemical; details: gel-based assay
T3 construct: Recombinant full-length IN was expressed in E. coli BL21 pLys; 6xHis; made in house; host or cells: E. coli BL21 pLys
Procedure: (§2) Oligonucleotides. Oligonucleotides were purchased from Integrated DNA Technologies, Inc. (Leuven, Belgium), purified on polyacrylamide gel through electro-elution and dissolve in water. 19T ([…]) and 21B ([…]) correspond to the cleaved and non-cleaved strands specifically recognized by HIV-1 IN. Radiolabeling of 19T at the 5′-end was performed with [γ-^32P] ATP (Perkin-Elmer, Villebon-sur-Yvette, France) using T4 polynucleotide kinase (Promega, Charbonnières-les-Bains, France), according to the manufacturers’ instructions. Unincorporated isotopes were removed using illustra microspin G-25 Columns (Cytiva life sciences, Amersham, Little Chalfont, United Kingdom). DNA duplexes were annealed using an equimolar ratio of the complementary strand 21B, heating to 95 °C, and slow cooling to room temperature.
Integrase reactions. IN reactions were carried out by adding molecules or an equivalent volume of 100% DMSO (dimethyl sulfoxide, used as the drug solvent) to a mixture of 20 nM duplex DNA (19T/21B) and 400 nM IN in 50 mM MOPS pH 7.2, 7.5 mM MgCl2, and 14 mM 2-mercaptoethanol. […] Densitometric analyses were performed using the ImageQuant 5.1 software (GE Healthcare, Chicago, IL, USA) and data analyzed using Prism 6.05 software (GraphPad, San Diego, CA, USA).

HIV-1 IN [2] = molecular target: T3, HIV-1 IN; test: Integrase reaction, strand transfer (ST), gel-based; assay type: biochemical
Procedure: as §2
Integrase reactions. IN reactions were carried out by adding molecules or an equivalent volume of 100% DMSO (dimethyl sulfoxide, used as the drug solvent) to a mixture of 20 nM duplex DNA (19T/21B) and 400 nM IN in 50 mM MOPS pH 7.2, 7.5 mM MgCl2, and 14 mM 2-mercaptoethanol. Reactions were performed at 37 °C for 1 h and quenched by addition of an equal volume (10 µL) of loading buffer [formamide containing 1% SDS (sodium dodecyl sulfate), 0.25% bromophenol blue, and xylene cyanol]. Reaction products were separated in 16% polyacrylamide denaturing sequencing gels. Dried gels were visualized using a FLA-5000 imaging system (Fujifilm). Densitometric analyses were performed using the ImageQuant 5.1 software (GE Healthcare, Chicago, IL, USA) and data analyzed using Prism 6.05 software (GraphPad, San Diego, CA, USA).

[3] = molecular target: T4, IN's phosphorylation catalyzed by GCN2 (Homo sapiens, UniProt Q9P2K8); test: In vitro phosphorylation assay: phosphorylation of IN catalyzed by GCN2; assay type: biochemical, human GCN2 / HIV-1 IN; details: for inhibition at 100 µM: read-out: decrease (inhibition) in IN phosphorylation; for concentration giving full inhibition of IN phosphorylation: serial dilutions from 300 µM to 137 nM
T4 construct: expressed as a truncated version (192-1024) in fusion after a glutathione S-transferase tag; purchased SignalChem (GCN2); IN made in house in E. coli BL21 pLys E12-11G; host or cells: E. coli BL21 pLys (IN)
T4 sequence (Q9P2K8 192-1024): T2 sequence (Q9P2K8 192-1024)
Procedure: Enzymes. GCN2 was purchased from SignalChem (EIF2AK4, cat. #E12-11G). […] Recombinant full-length IN was expressed in E. coli BL21 pLys (IPTG induction) and purified on a nickel chelating column, as described. Integrity and purity were checked by direct Coomassie coloration of elution fractions on SDS-PAGE before dialysis to remove imidazole.
as §1, with “Phosphorylation of IN (700 nM) was carried out using 25 nM of GCN2 in a reaction buffer containing 10 mM Tris-HCl pH 7.5, 50 mM NaCl, 15 mM MgCl2, 7.5 mM MnCl2, 10 mM DTT, 0.005% Nonidet P-40, 100 µM ATP, 50 µCi/µL of [γ-^32P]-ATP (3000 Ci/mmole, Perkin Elmer).” left out

[4] = 100 µM, dose-response experiment
[5] = single dose of 100 µM, compared to DMSO
[6] = pilot screen, single dose of 100 µM, read-out: inhibition of the IN–GCN2 interaction signal
[7] = pilot screen, single dose of 100 µM

c1nn(C2CCOCC2)cc1Nc1ncc2nnn(-c3ccc4cn[nH]c4c3)c2n1 [A-92]
doses with a slight impact on IN–GCN2 interaction (IN–GCN2 interaction): above 333 µM
inhibition at 1000 µM (IN–GCN2 interaction; 1 mM): < 20%
effect on the IN–GCN2 interaction (IN–GCN2 interaction): did not affect
IC50 (GCN2; read-out: apparent IC50, GCN2's activation (autophosphorylation)): ~0.2 µM

CCN1C[C@@H](C)n2c(c(O)c3c(=O)n(Cc4ccc(F)c(Cl)c4)nc(C(=O)NC)c32)C1=O [MK-2048]
IC50 (HIV-1 IN [1]): 2 µM
IC50 (HIV-1 IN [2]; gel-based assay, read-out: apparent IC50, inhibition of ST): 0.02 µM
effect on the IN–GCN2 interaction (IN–GCN2 interaction): did not affect
IC50 (IN–GCN2 interaction; read-out: apparent IC50, IN–GCN2 interaction): ~100 µM

Clc1ccc(C(c2ccccc2Cl)C(Cl)Cl)cc1 (stereo not shown) [NSC38721, Mitotane]
effect on IN strand transfer activity (HIV-1 IN [2]; serial dilutions from 100 µM to 45.7 nM, only IN present): inactive
value (signal) at the highest dose in the dose-response experiment (IN–GCN2 interaction; [4]): 248.5%
increase in signal (IN–GCN2 interaction) (IN–GCN2 interaction; pilot screen, 100 µM, compared to the DMSO control): 299.9%
inhibition at 100 µM [3, 5]: ~30%

CC1=C(/C=C/C(C)=C/C=C/C(C)=C/C(=O)O)C(C)(C)CCC1 [NSC122758, Tretinoin]
value (signal) at the highest dose in the dose-response experiment (IN–GCN2 interaction; [4]): 10.5%
inhibition at 100 µM (IN–GCN2 interaction; 100 µM, dose-response experiment, corresponding to the printed signal, read-out: inhibition at the highest dose in the dose-response experiment): 89.5%
inhibition at 100 µM (IN–GCN2 interaction; [6]): 87.3%
decrease in GCN2 auto-phosphorylation (GCN2): no impact
decrease (inhibition) in IN phosphorylation [3, 5]: no impact

Cc1cn(-c2cc(NC(=O)c3ccc(C)c(Nc4nccc(-c5cccnc5)n4)c3)cc(C(F)(F)F)c2)cn1 [NSC747599, Nilotinib]
decrease in GCN2 auto-phosphorylation (GCN2): no effect
inhibition at 100 µM [3, 5]: 40%

CNCc1ccc(-c2[nH]c3cc(F)cc4c3c2CCNC4=O)cc1 [NSC756644, Rucaparib phosphate]
concentration giving full inhibition of GCN2 auto-phosphorylation (GCN2; serial dilutions from 300 µM to 137 nM): 300 µM
decrease in GCN2 auto-phosphorylation (GCN2): ~80%
concentration giving full inhibition of IN phosphorylation [3]: 300 µM
decrease (inhibition) in IN phosphorylation [3, 5]: inhibited

Cc1ccc(C(=O)Nc2ccc(CN3CCN(C)CC3)c(C(F)(F)F)c2)cc1C#Cc1cnc2cccnn12 [NSC758487, Ponatinib]
decrease in GCN2 auto-phosphorylation (GCN2): around 35%
inhibition at 100 µM [3]: > 80%
concentration giving full inhibition of IN phosphorylation [3]: without reaching full inhibition

CC1(C)CCC(CN2CCN(c3ccc(C(=O)NS(=O)(=O)c4ccc(NCC5CCOCC5)c([N+](=O)[O-])c4)c(Oc4cnc5[nH]ccc5c4)c3)CC2)=C(c2ccc(Cl)cc2)C1 [NSC766270, Venetoclax]
inhibition at 100 µM (IN–GCN2 interaction; [6]): 93.6%
decrease in GCN2 auto-phosphorylation (GCN2): no impact
decrease (inhibition) in IN phosphorylation [3, 5]: no impact

C=CC(=O)Nc1cc(Nc2nccc(-c3cn(C)c4ccccc34)n2)c(OC)cc1N(C)CCN(C)C [NSC779217, Osimertinib]
inhibition at 100 µM (IN–GCN2 interaction; [6]): 83.5%
decrease in GCN2 auto-phosphorylation (GCN2): around 20%
inhibition at 100 µM [3, 5]: ~20%

CCc1c2c(nc3ccc(OC(=O)N4CCC(N5CCCCC5)CC4)cc13)-c1cc3c(c(=O)n1C2)COC(=O)[C@]3(O)CC [irinotecan, Irinotecan hydrochloride]
inhibition of the IN–GCN2 interaction signal (IN–GCN2 interaction; [7]): no effect

CC[C@@]1(O)C(=O)OCc2c1cc1n(c2=O)Cc2cc3c(CN(C)C)c(O)ccc3nc2-1 [topotecan, Topotecan hydrochloride]
inhibition of the IN–GCN2 interaction signal (IN–GCN2 interaction; [7]): no effect
